Assay results published in the supplement of paper PMC10307832.

Columns and labels:
Test in all cases: relative viability (nuclei count vs DMSO), 5 days (fraction); higher = more cells survive
NCI-H1975 = test system: NCI-H1975
How it was run: (§1)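 Relative viability is defined as nuclei in treated wells over nuclei in vehicle wells. Duplicate plates were run and medians reported. Lung cancer cell lines in 1536-well plates were dosed by pin tool one day after seeding, with one drug or with a fixed anchor-drug dose plus five library-drug doses (not always all listed) in √10 steps, and nuclei were counted after 5 days.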

HOP-62 = test system: HOP-62
How it was run: as §1

NCI-H1734 = test system: NCI-H1734
How it was run: as §1

NCI-H2347 = test system: NCI-H2347
How it was run: as §1

HCC-15 = test system: HCC-15
How it was run: as §1

SW 1573 = test system: SW 1573
How it was run: as §1

NCI-H2228 = test system: NCI-H2228
How it was run: as §1

NCI-H522 = test system: NCI-H522
How it was run: as §1

SK-LU-1 = test system: SK-LU-1
How it was run: as §1

NCI-H1755 = test system: NCI-H1755
How it was run: as §1

LC-2-ad = test system: LC-2-ad
How it was run: as §1

NCI-H647 = test system: NCI-H647
How it was run: as §1

LOU-NH91 = test system: LOU-NH91
How it was run: as §1

NCI-H358 = test system: NCI-H358
How it was run: as §1

NCI-H1915 = test system: NCI-H1915
How it was run: as §1

RERF-LC-KJ = test system: RERF-LC-KJ
How it was run: as §1

NCI-H2342 = test system: NCI-H2342
How it was run: as §1

NCI-H2126 = test system: NCI-H2126
How it was run: as §1

LXF-289 = test system: LXF-289
How it was run: as §1

NCI-H1792 = test system: NCI-H1792
How it was run: as §1

PC-3 [JPC-3] = test system: PC-3 [JPC-3]
How it was run: as §1

A-427 = test system: A-427
How it was run: as §1

NCI-H460 = test system: NCI-H460
How it was run: as §1

Which relative viability (NCI-H1975; first compound 0.04 µM) does the source give for `C[C@@H]1CN(CC(=O)Nc2ccc3c(c2)Cc2cccc(-c4cc(=O)cc(N5CCOCC5)o4)c2S3)C[C@H](C)O1` + CCNC(=O)c1noc(-c2cc(C(C)C)c(O)cc2O)c1-c1ccc(CN2CCOCC2)cc1 [Luminespib] (partner 0.01 µM) here?
The relative viability was 0.289.

What about the relative viability (NCI-H1975; first compound 0.1265 µM) of the same molecule?
Its relative viability is 0.199.

And the relative viability (NCI-H1975; first compound 0.4 µM)?
The relative viability was 0.26.

And the relative viability (NCI-H1975; first compound 4 µM)?
Its relative viability is 0.158.

And the relative viability (HOP-62; first compound 0.04 µM)?
Its relative viability is 0.917.

What about the relative viability (HOP-62; first compound 0.1265 µM) of the same molecule?
Its relative viability is 0.898.

And the relative viability (HOP-62; first compound 0.4 µM)?
The relative viability was 0.92.

What about the relative viability (HOP-62; first compound 4 µM) of the same molecule?
The relative viability was 0.907.

What about the relative viability (NCI-H1734; first compound 0.04 µM) of the same molecule?
The relative viability was 0.264.

And the relative viability (NCI-H1734; first compound 0.1265 µM)?
Its relative viability is 0.212.

What about the relative viability (NCI-H1734; first compound 0.4 µM) of the same molecule?
The relative viability was 0.195.

What about the relative viability (NCI-H1734; first compound 4 µM) of the same molecule?
Its relative viability is 0.291.

And the relative viability (NCI-H2347; first compound 0.04 µM)?
The relative viability was 0.926.

And the relative viability (NCI-H2347; first compound 0.1265 µM)?
Its relative viability is 0.475.

What about the relative viability (NCI-H2347; first compound 0.4 µM) of the same molecule?
The relative viability was 0.438.

What about the relative viability (NCI-H2347; first compound 4 µM) of the same molecule?
Its relative viability is 0.534.

And the relative viability (HCC-15; first compound 0.04 µM)?
The relative viability was 0.358.

What about the relative viability (HCC-15; first compound 0.1265 µM) of the same molecule?
The relative viability was 0.282.

What about the relative viability (HCC-15; first compound 0.4 µM) of the same molecule?
The relative viability was 0.284.

And the relative viability (HCC-15; first compound 4 µM)?
Its relative viability is 0.27.

What about the relative viability (SW 1573; first compound 0.04 µM) of the same molecule?
The relative viability was 0.215.

And the relative viability (SW 1573; first compound 0.1265 µM)?
The relative viability was 0.386.

What about the relative viability (SW 1573; first compound 0.4 µM) of the same molecule?
The relative viability was 0.207.

What about the relative viability (SW 1573; first compound 4 µM) of the same molecule?
The relative viability was 0.366.

What about the relative viability (NCI-H2228; first compound 0.04 µM) of the same molecule?
The relative viability was 0.15.

And the relative viability (NCI-H2228; first compound 0.1265 µM)?
Its relative viability is 0.128.

What about the relative viability (NCI-H2228; first compound 0.4 µM) of the same molecule?
The relative viability was 0.171.

What about the relative viability (NCI-H2228; first compound 4 µM) of the same molecule?
The relative viability was 0.133.

And the relative viability (NCI-H522; first compound 0.1265 µM)?
The relative viability was 1.17.

What about the relative viability (NCI-H522; first compound 0.4 µM) of the same molecule?
The relative viability was 1.06.

And the relative viability (NCI-H522; first compound 4 µM)?
Its relative viability is 0.896.

And the relative viability (SK-LU-1; first compound 0.04 µM)?
The relative viability was 0.222.

What about the relative viability (SK-LU-1; first compound 0.1265 µM) of the same molecule?
The relative viability was 0.203.

And the relative viability (SK-LU-1; first compound 0.4 µM)?
Its relative viability is 0.23.

And the relative viability (SK-LU-1; first compound 4 µM)?
The relative viability was 0.167.

And the relative viability (NCI-H1755; first compound 0.04 µM)?
Its relative viability is 0.398.

And the relative viability (NCI-H1755; first compound 0.1265 µM)?
The relative viability was 0.361.

What about the relative viability (NCI-H1755; first compound 0.4 µM) of the same molecule?
Its relative viability is 0.45.

What about the relative viability (NCI-H1755; first compound 4 µM) of the same molecule?
Its relative viability is 0.258.

And the relative viability (LC-2-ad; first compound 0.04 µM)?
The relative viability was 0.986.

What about the relative viability (LC-2-ad; first compound 0.1265 µM) of the same molecule?
Its relative viability is 0.912.

And the relative viability (LC-2-ad; first compound 0.4 µM)?
The relative viability was 0.979.

And the relative viability (LC-2-ad; first compound 4 µM)?
Its relative viability is 0.953.

What about the relative viability (NCI-H647; first compound 0.04 µM) of the same molecule?
Its relative viability is 0.121.

What about the relative viability (NCI-H647; first compound 0.1265 µM) of the same molecule?
The relative viability was 0.153.

And the relative viability (NCI-H647; first compound 0.4 µM)?
Its relative viability is 0.152.

What about the relative viability (NCI-H647; first compound 4 µM) of the same molecule?
The relative viability was 0.163.

And the relative viability (LOU-NH91; first compound 0.04 µM)?
Its relative viability is 0.39.

What about the relative viability (LOU-NH91; first compound 0.1265 µM) of the same molecule?
Its relative viability is 0.358.

And the relative viability (LOU-NH91; first compound 0.4 µM)?
The relative viability was 0.3.

What about the relative viability (LOU-NH91; first compound 4 µM) of the same molecule?
Its relative viability is 0.371.

And the relative viability (NCI-H358; first compound 0.04 µM)?
The relative viability was 0.429.

And the relative viability (NCI-H358; first compound 0.1265 µM)?
The relative viability was 0.308.

And the relative viability (NCI-H358; first compound 0.4 µM)?
Its relative viability is 0.399.

And the relative viability (NCI-H358; first compound 4 µM)?
The relative viability was 0.233.

And the relative viability (NCI-H1915; first compound 0.04 µM)?
The relative viability was 0.761.

And the relative viability (NCI-H1915; first compound 0.1265 µM)?
The relative viability was 0.686.

What about the relative viability (NCI-H1915; first compound 0.4 µM) of the same molecule?
The relative viability was 0.756.

What about the relative viability (NCI-H1915; first compound 4 µM) of the same molecule?
Its relative viability is 0.68.

What about the relative viability (RERF-LC-KJ; first compound 0.04 µM) of the same molecule?
The relative viability was 1.18.

What about the relative viability (RERF-LC-KJ; first compound 0.1265 µM) of the same molecule?
Its relative viability is 1.18.

What about the relative viability (RERF-LC-KJ; first compound 0.4 µM) of the same molecule?
Its relative viability is 1.19.

And the relative viability (RERF-LC-KJ; first compound 4 µM)?
Its relative viability is 0.709.

What about the relative viability (NCI-H2342; first compound 0.04 µM) of the same molecule?
The relative viability was 0.706.

What about the relative viability (NCI-H2342; first compound 0.1265 µM) of the same molecule?
Its relative viability is 0.641.

And the relative viability (NCI-H2342; first compound 0.4 µM)?
Its relative viability is 0.722.

What about the relative viability (NCI-H2342; first compound 4 µM) of the same molecule?
The relative viability was 0.662.

And the relative viability (NCI-H2126; first compound 0.04 µM)?
The relative viability was 1.04.

What about the relative viability (NCI-H2126; first compound 0.1265 µM) of the same molecule?
The relative viability was 0.881.

What about the relative viability (NCI-H2126; first compound 0.4 µM) of the same molecule?
Its relative viability is 0.863.

And the relative viability (NCI-H2126; first compound 4 µM)?
Its relative viability is 0.744.

What about the relative viability (LXF-289; first compound 0.04 µM) of the same molecule?
The relative viability was 0.657.

And the relative viability (LXF-289; first compound 0.1265 µM)?
The relative viability was 0.645.

What about the relative viability (LXF-289; first compound 0.4 µM) of the same molecule?
Its relative viability is 0.714.

What about the relative viability (LXF-289; first compound 4 µM) of the same molecule?
Its relative viability is 0.73.

What about the relative viability (NCI-H1792; first compound 0.04 µM) of the same molecule?
The relative viability was 0.385.

What about the relative viability (NCI-H1792; first compound 0.1265 µM) of the same molecule?
Its relative viability is 0.493.

And the relative viability (NCI-H1792; first compound 0.4 µM)?
Its relative viability is 0.399.

What about the relative viability (NCI-H1792; first compound 4 µM) of the same molecule?
The relative viability was 0.333.

What about the relative viability (PC-3 [JPC-3]; first compound 0.04 µM) of the same molecule?
Its relative viability is 0.744.

And the relative viability (PC-3 [JPC-3]; first compound 0.1265 µM)?
Its relative viability is 0.684.

And the relative viability (PC-3 [JPC-3]; first compound 0.4 µM)?
Its relative viability is 0.728.

And the relative viability (PC-3 [JPC-3]; first compound 4 µM)?
Its relative viability is 0.605.

What about the relative viability (A-427; first compound 0.1265 µM) of the same molecule?
The relative viability was 0.884.

What about the relative viability (A-427; first compound 0.4 µM) of the same molecule?
The relative viability was 1.02.

And the relative viability (A-427; first compound 4 µM)?
Its relative viability is 1.02.

And the relative viability (NCI-H460; first compound 0.04 µM)?
Its relative viability is 0.0317.

And the relative viability (NCI-H460; first compound 0.1265 µM)?
Its relative viability is 0.0406.

What about the relative viability (NCI-H460; first compound 0.4 µM) of the same molecule?
Its relative viability is 0.0348.

What about the relative viability (NCI-H460; first compound 4 µM) of the same molecule?
Its relative viability is 0.0326.
